Data taken from patent US9187472B2 (AbbVie Inc., priority 2012, dated 2015).

What was measured:
PC3 cells = assay: NAMPT Cell Proliferation Assay; format: cell-based; conditions: Homo sapiens, PC-3, 120 h, 5 days incubation, cell viability by Cell Titer Glo
How it was run: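 Seed PC3 at 500 cells/well (RPMI, 10% HI-FBS), attach overnight; add compound, 10-fold series 10 μM → 1×10^−5 μM; incubate 5 d, 37° C/5% CO2; luminescent viability readout; fit % inhibition sigmoidally for IC50.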

NAMPT = NAMPT (Homo sapiens, UniProt P43490); assay: TR-FRET Binding Assay of NAMPT with PRPP; conditions: with 200 μM PRPP and 2.5 mM ATP; 2 nM NAMPT, 2 nM probe, 16 hours equilibration
How it was run: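 Read-out is TR-FRET after a 16 h equilibration allowing possible compound modification by the enzyme. Final mix: 2 nM NAMPT, 2 nM probe, 1 nM Tb-anti-His antibody, 200 μM PRPP, 2.5 mM ATP, 2% DMSO.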

[1] = molecular target: NAMPT (human, recombinant, C-terminally His-tagged) (Homo sapiens, UniProt P43490); assay: Time-Resolved Fluorescence Resonance Energy Transfer (TR-FRET) Binding Assay of NAMPT; conditions: without substrates; 6.8 nM NAMPT, 200 nM probe, 3 hours equilibration
How it was run: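 Competitive binding against an Oregon Green 488 tracer (200 nM), 6.8 nM His-tagged enzyme, 1 nM Tb antibody, 2% DMSO, 3 h at RT. IC50 derived from TR-FRET ratios.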

Sequence of NAMPT (P43490 whole entry): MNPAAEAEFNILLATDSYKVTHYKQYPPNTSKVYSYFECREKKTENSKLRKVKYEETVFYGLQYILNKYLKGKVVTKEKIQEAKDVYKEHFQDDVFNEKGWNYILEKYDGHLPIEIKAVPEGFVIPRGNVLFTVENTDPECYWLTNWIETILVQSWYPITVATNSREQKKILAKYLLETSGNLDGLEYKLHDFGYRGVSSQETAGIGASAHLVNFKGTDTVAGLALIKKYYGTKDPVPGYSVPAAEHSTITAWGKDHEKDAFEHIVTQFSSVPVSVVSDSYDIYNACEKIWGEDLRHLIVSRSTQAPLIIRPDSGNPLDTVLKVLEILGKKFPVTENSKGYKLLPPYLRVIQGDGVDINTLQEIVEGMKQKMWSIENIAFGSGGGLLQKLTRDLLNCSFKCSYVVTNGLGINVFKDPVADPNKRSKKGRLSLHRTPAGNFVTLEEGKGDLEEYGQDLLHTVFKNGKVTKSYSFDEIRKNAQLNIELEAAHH
Sequence of NAMPT (human, recombinant, C-terminally His-tagged) (P43490 whole entry): as above

O=C(NCc1ccn2ccnc2c1)c1ccc(C2=CCN(C(=O)CC3CC3)CC2)o1 [Example 750, 5-[1-(cyclopropylacetyl)-1,2,3,6-tetrahydropyridin-4-yl]-N-(imidazo[1,2-a]pyridin-7-ylmethyl)furan-2-carboxamide]
IC50 (PC3 cells): 794 nM | IC50 (NAMPT): 1.54 nM | IC50 [1]: 1530 nM

CC(C)CS(=O)(=O)N1CCC(c2ncc(C(=O)NCc3ccn4ccnc4c3)s2)C1 (stereo not drawn) [Example 751, N-(imidazo[1,2-a]pyridin-7-ylmethyl)-2-{1-[(2-methylpropyl)sulfonyl]pyrrolidin-3-yl}-1,3-thiazole-5-carboxamide]
IC50 (PC3 cells): 755 nM | IC50 (NAMPT): 1 nM | IC50 [1]: 1240 nM

O=C(NCc1ccn2ccnc2c1)c1cnc(C2CCN(S(=O)(=O)c3ccccc3)C2)s1 (stereo not drawn) [Example 752, N-(imidazo[1,2-a]pyridin-7-ylmethyl)-2-[1-(phenylsulfonyl)pyrrolidin-3-yl]-1,3-thiazole-5-carboxamide]
IC50 (PC3 cells): 6660 nM | IC50 (NAMPT): 0.77 nM | IC50 [1]: 5190 nM

CC(C)CS(=O)(=O)N1CC=C(c2ccc(C(=O)NCc3ccn4ccnc4c3)o2)CC1 [Example 753, N-(imidazo[1,2-a]pyridin-7-ylmethyl)-5-{1-[(2-methylpropyl)sulfonyl]-1,2,3,6-tetrahydropyridin-4-yl}furan-2-carboxamide]
IC50 (PC3 cells): 74.6 nM | IC50 (NAMPT): 0.783 nM | IC50 [1]: 403 nM

CC(C)Cn1cc(-c2ccc(C(=O)NCc3cn4ccnc4cn3)s2)cn1 [Example 754, N-(imidazo[1,2-a]pyrazin-6-ylmethyl)-5-[1-(2-methylpropyl)-1H-pyrazol-4-yl]thiophene-2-carboxamide]
IC50 (PC3 cells): 1.25 nM | IC50 (NAMPT): 0.51 nM | IC50 [1]: 4.92 nM

CC1(Cn2cc(-c3ccc(C(=O)NCc4ccn5ccnc5c4)s3)cn2)CCN(C(=O)OC(C)(C)C)CC1 [Example 755, tert-butyl 4-[(4-{5-[(imidazo[1,2-a]pyridin-7-ylmethyl)carbamoyl]thiophen-2-yl]-1H-pyrazol-1-yl)methyl}-4-methylpiperidine-1-carboxylate]
IC50 (PC3 cells): 2.49 nM | IC50 (NAMPT): 0.57 nM | IC50 [1]: 13 nM

O=C(NCc1ccn2ccnc2c1)c1ccc(C2CCN(C(=O)CC3CC3)C2)s1 (stereo not drawn) [Example 756, 5-[1-(cyclopropylacetyl)pyrrolidin-3-yl]-N-(imidazo[1,2-a]pyridin-7-ylmethyl)thiophene-2-carboxamide]
IC50 (PC3 cells): 18.9 nM | IC50 (NAMPT): 0.609 nM | IC50 [1]: 123 nM

O=C(NCc1ccn2ccnc2c1)c1ccc(C2CCN(C(=O)c3ccccc3Cl)C2)s1 (stereo not drawn) [Example 757, 5-[1-(2-chlorobenzoyl)pyrrolidin-3-yl]-N-(imidazo[1,2-a]pyridin-7-ylmethyl)thiophene-2-carboxamide]
IC50 (PC3 cells): 0.435 nM | IC50 (NAMPT): 0.705 nM | IC50 [1]: 15.6 nM

O=C(NCc1ccn2ccnc2c1)c1ccc(C2CCN(C(=O)Cc3ccc(F)cc3)C2)s1 (stereo not drawn) [Example 758, 5-{1-[(4-fluorophenyl)acetyl]pyrrolidin-3-yl}-N-(imidazo[1,2-a]pyridin-7-ylmethyl)thiophene-2-carboxamide]
IC50 (PC3 cells): 23.2 nM | IC50 (NAMPT): 0.61 nM | IC50 [1]: 132 nM

COc1cccc(C(=O)N2CCC(c3ccc(C(=O)NCc4ccn5ccnc5c4)s3)C2)c1 (stereo not drawn) [Example 759, N-(imidazo[1,2-a]pyridin-7-ylmethyl)-5-[1-(3-methoxybenzoyl)pyrrolidin-3-yl]thiophene-2-carboxamide]
IC50 (PC3 cells): 1.65 nM | IC50 (NAMPT): 0.799 nM | IC50 [1]: 28.5 nM

COc1ccccc1C(=O)N1CCC(c2ccc(C(=O)NCc3ccn4ccnc4c3)s2)C1 (stereo not drawn) [Example 760, N-(imidazo[1,2-a]pyridin-7-ylmethyl)-5-[1-(2-methoxybenzoyl)pyrrolidin-3-yl]thiophene-2-carboxamide]
IC50 (PC3 cells): 1.19 nM | IC50 (NAMPT): 0.71 nM | IC50 [1]: 28.9 nM

O=C(NCc1ccn2ccnc2c1)c1ccc(C2CCN(C(=O)Cc3cccc(F)c3)C2)s1 (stereo not drawn) [Example 761, 5-{1-[(3-fluorophenyl)acetyl]pyrrolidin-3-yl}-N-(imidazo[1,2-a]pyridin-7-ylmethyl)thiophene-2-carboxamide]
IC50 (PC3 cells): 27.7 nM | IC50 (NAMPT): 0.394 nM | IC50 [1]: 94.4 nM

O=C(NCc1ccn2ccnc2c1)c1ccc(C2CCN(C(=O)c3cccc(F)c3)C2)s1 (stereo not drawn) [Example 762, 5-[1-(3-fluorobenzoyl)pyrrolidin-3-yl]-N-(imidazo[1,2-a]pyridin-7-ylmethyl)thiophene-2-carboxamide]
IC50 (PC3 cells): 1.12 nM | IC50 (NAMPT): 0.506 nM | IC50 [1]: 30.1 nM

O=C(NCc1ccn2ccnc2c1)c1ccc(C2CCN(C(=O)c3ccc(F)cc3)C2)s1 (stereo not drawn) [Example 763, 5-[1-(4-fluorobenzoyl)pyrrolidin-3-yl]-N-(imidazo[1,2-a]pyridin-7-ylmethyl)thiophene-2-carboxamide]
IC50 (PC3 cells): 2.31 nM | IC50 (NAMPT): 0.478 nM | IC50 [1]: 48.5 nM

O=C(NCc1ccn2ccnc2c1)c1ccc(C2CCN(C(=O)Cc3cc(F)cc(F)c3)C2)s1 (stereo not drawn) [Example 764, 5-{1[(3,5-difluorophenyl)acetyl]pyrrolidin-3-yl}-N-(imidazo[1,2-a]pyridin-7-ylmethyl)thiophene-2-carboxamide]
IC50 (PC3 cells): 68.7 nM | IC50 (NAMPT): 0.465 nM | IC50 [1]: 135 nM

O=C(NCc1ccn2ccnc2c1)c1ccc(C2CCN(C(=O)Cc3ccccc3F)C2)s1 (stereo not drawn) [Example 765, 5-{1-[(2-fluorophenyl)acetyl]pyrrolidin-3-yl}-N-(imidazo[1,2-a]pyridin-7-ylmethyl)thiophene-2-carboxamide]
IC50 (PC3 cells): 2.91 nM | IC50 (NAMPT): 0.782 nM | IC50 [1]: 36.5 nM

N#Cc1ccc(C(=O)N2CCC(c3ccc(C(=O)NCc4ccn5ccnc5c4)s3)C2)cc1 (stereo not drawn) [Example 766, 5-[1-(4-cyanobenzoyl)pyrrolidin-3-yl]-N-(imidazo[1,2-a]pyridin-7-ylmethyl)thiophene-2-carboxamide]
IC50 (PC3 cells): 6.36 nM | IC50 (NAMPT): 0.581 nM | IC50 [1]: 61.5 nM

CC1(C(=O)N2CCC(c3ccc(C(=O)NCc4ccn5ccnc5c4)s3)C2)COC1 (stereo not drawn) [Example 767, N-(imidazo[1,2-a]pyridin-7-ylmethyl)-5-{1-[(3-methyloxetan-3-yl)carbonyl]pyrrolidin-3-yl}thiophene-2-carboxamide]
IC50 (PC3 cells): 67.2 nM | IC50 (NAMPT): 0.64 nM | IC50 [1]: 265 nM

O=C(NCc1ccn2ccnc2c1)c1ccc(C2CCN(C(=O)c3cc(F)cc(F)c3)C2)s1 (stereo not drawn) [Example 768, 5-[1-(3,5-difluorobenzoyl)pyrrolidin-3-yl]-N-(imidazo[1,2-a]pyridin-7-ylmethyl)thiophene-2-carboxamide]
IC50 (PC3 cells): 0.905 nM | IC50 (NAMPT): 0.672 nM | IC50 [1]: 28.1 nM

O=C(NCc1ccn2ccnc2c1)c1ccc(C2CCN(C(=O)C3CCCC3)C2)s1 (stereo not drawn) [Example 769, 5-[1-(cyclopentylcarbonyl)pyrrolidin-3-yl]-N-(imidazo[1,2-a]pyridin-7-ylmethyl)thiophene-2-carboxamide]
IC50 (PC3 cells): 5.26 nM | IC50 (NAMPT): 0.705 nM | IC50 [1]: 98.4 nM

O=C(NCc1ccn2ccnc2c1)c1ccc(C2CCN(C(=O)c3ccc(Cl)cc3)C2)s1 (stereo not drawn) [Example 770, 5-[1-(4-chlorobenzoyl)pyrrolidin-3-yl]-N-(imidazo[1,2-a]pyridin-7-ylmethyl)thiophene-2-carboxamide]
IC50 (PC3 cells): 6 nM | IC50 (NAMPT): 0.735 nM | IC50 [1]: 38.8 nM

Cn1cccc1C(=O)N1CCC(c2ccc(C(=O)NCc3ccn4ccnc4c3)s2)C1 (stereo not drawn) [Example 771, N-(imidazo[1,2-a]pyridin-7-ylmethyl)-5-{1-[(1-methyl-1H-pyrrol-2-yl)carbonyl]pyrrolidin-3-yl}thiophene-2-carboxamide]
IC50 (PC3 cells): 3.47 nM | IC50 (NAMPT): 0.573 nM | IC50 [1]: 70.8 nM

O=C(NCc1ccn2ccnc2c1)c1ccc(C2CCN(C(=O)c3ccc(F)cc3F)C2)s1 (stereo not drawn) [Example 772, 5-[1-(2,4-difluorobenzoyl)pyrrolidin-3-yl]-N-(imidazo[1,2-a]pyridin-7-ylmethyl)thiophene-2-carboxamide]
IC50 (PC3 cells): 2.4 nM | IC50 (NAMPT): 0.828 nM | IC50 [1]: 61.5 nM

O=C(NCc1ccn2ccnc2c1)c1ccc(C2CCN(C(=O)c3ccncc3)C2)s1 (stereo not drawn) [Example 773, N-(imidazo[1,2-a]pyridin-7-ylmethyl)-5-[1-(pyridin-4-ylcarbonyl)pyrrolidin-3-yl]thiophene-2-carboxamide]
IC50 (PC3 cells): 9.53 nM | IC50 (NAMPT): 0.773 nM | IC50 [1]: 72.6 nM

O=C(NCc1ccn2ccnc2c1)c1ccc(C2CCN(C(=O)c3ccccn3)C2)s1 (stereo not drawn) [Example 774, N-(imidazo[1,2-a]pyridin-7-ylmethyl)-5-[1-(pyridin-2-ylcarbonyl)pyrrolidin-3-yl]thiophene-2-carboxamide]
IC50 (PC3 cells): 7.07 nM | IC50 (NAMPT): 0.46 nM | IC50 [1]: 103 nM

Cn1cc(C(=O)N2CCC(c3ccc(C(=O)NCc4ccn5ccnc5c4)s3)C2)cn1 (stereo not drawn) [Example 775, N-(imidazo[1,2-a]pyridin-7-ylmethyl)-5-{1-[(1-methyl-1H-pyrazol-4-yl)carbonyl]pyrrolidin-3-yl}thiophene-2-carboxamide]
IC50 (PC3 cells): 60.9 nM | IC50 (NAMPT): 0.538 nM | IC50 [1]: 51.9 nM

O=C(NCc1ccn2ccnc2c1)c1ccc(C2CCN(C(=O)c3ccccc3F)C2)s1 (stereo not drawn) [Example 776, 5-[1-(2-fluorobenzoyl)pyrrolidin-3-yl]-N-(imidazo[1,2-a]pyridin-7-ylmethyl)thiophene-2-carboxamide]
IC50 (PC3 cells): 2.1 nM | IC50 (NAMPT): 0.169 nM | IC50 [1]: 21.5 nM
